Assays:
A549 tumor xenografts = assay: Human tumor xenograft growing s.c. in athymic nude mice; assay type: in vivo, athymic nude mouse; conditions: 5×/week for 2 weeks, recorded on day 24, * = p<0.05
Experimental: (§1) Utilizing this model, one can measure the ability of test compounds to inhibit the growth of human tumor xenografts growing subcutaneously (s.c.) in athymic nude mice. The histologic tumor type employed was MDA-MB-435 breast carcinoma for Ex.1 and 7 and A549 non-small cell lung carcinoma for Ex. 1-3.
A549 non-small cell lung carcinoma: Treatments were started 17 d post-implantation (1×10^7 cells/mouse), when a mean tumor volume of approximately 120 mm^3 was reached. Ex. 1-3 were administered iv on days 17-21 (followed by 2 d rest, then a second cycle of treatment on days 24-28). Total daily doses of 10 or 30 μmol/kg were administered as a single injection. Data in this table were recorded on day 24, 3 d after the last treatment of the first cycle. An asterisk (*) indicates p<0.05 using a one-tailed Student's t-Test.
Toxicity was monitored by recording average group body weights twice weekly, and by daily observation of general health. Efficacy was monitored by taking measurements of tumor length, width, and depth weekly using digital calipers coupled to automated data collectors. […] Anti-tumor activity was expressed as % T/C(Δ MTV of treated group÷Δ MTV of control group×100%). Statistical significance was evaluated using a one-tailed Student's t-test (p<0.05).

[1] = test system: MDA-MB-435 human breast carcinoma; assay: Anchorage Dependent Growth Monolayer Assay (ADGMA), MTS; assay type: cell-based; conditions: MDA-MB-435, 72 h, 3-day exposure, MTS A490, read-out: IC50 (average±S.D.) MDA-MB-435
Experimental: As indicated above, all of the compounds of formula I, and their corresponding pharmaceutically acceptable acid addition salts, are anti-tumor agents and are, therefore, useful in inhibiting the growth of various lymphomas, sarcomas, carcinomas, myelomas, and leukemia cell lines. […]
The ADGMA compares the number of viable cells following a 3-day exposure to a test compound relative to a number of cells present at the time the test compound was added. […] The absorbance at 490 nm (A490) of the formazan derivative is proportional to the number of viable cells. […]
Cell lines are trypsinized and counted using a Coulter counter to determine plating densities. […] The number of cells plates as determined in preliminary experiments, results in cell densities of 75-90% of confluency by 4 days after plating. Initial cell densities, assayed one day after plating, are roughly 0.15-0.20 absorbance units greater than the media blank. […] A490 of control plates is read 4 h after MTS addition to determine initial cell density values for each cell line. Three days after addition of test compound, 10 μL/well of MTS mixture is added to the test plates and A490 is read 4 h later. A490 values for wells containing cells are corrected for media absorbance, then normalized to initial density readings to determine percent net growth. […]

[2] = test system: MDA-MB-435 tumor xenografts; assay: Human tumor xenograft growing s.c. in athymic nude mice; assay type: in vivo, athymic nude mouse; conditions: 3×/week for 3 weeks, * = p<0.05
Experimental: as §1
MDA-MB-435 human breast carcinoma: Treatments were started 15 d post implantation (3×10^6 cells/mouse), when a mean tumor volume of approximately 45 mm^3 was reached. Ex. 1 and 7 were administered iv at three times per week for 3 weeks (days 15, 17, 20, 22, 24, 27, 29, and 31), at 3.3, 10, and 33 μmol/kg. Doxorubicin was administered iv at 2 mg/kg using the same schedule. Each data point represents tumor growth (mean±SEM), or body weight (mean), with an initial group size of n=8, from a representative experiment performed twice. An asterisk (*) indicates p<0.05 using a one-tailed Student's t-test.
Toxicity was monitored by recording average group body weights twice weekly, and by daily observation of general health. Efficacy was monitored by taking measurements of tumor length, width, and depth weekly using digital calipers coupled to automated data collectors. Mean tumor volume (MTV) at initiation of therapy was subtracted from final MTV in order to express the actual tumor growth during treatment (Δ MTV). Anti-tumor activity was expressed as % T/C(Δ MTV of treated group÷Δ MTV of control group×100%). Statistical significance was evaluated using a one-tailed Student's t-test (p<0.05).

SMILES	% T/C (A549 tumor xenografts; 10 μmol/kg iv daily)	% T/C (A549 tumor xenografts; 30 μmol/kg iv daily)	IC50 [1] [nM]	% T/C ([2]; 3.3 μmol/kg iv) [%]	% T/C ([2]; 10 μmol/kg iv) [%]	% T/C ([2]; 33 μmol/kg iv)
CCCCCOC(=O)O[C@@H]1CC[C@H](NC(=O)[C@H](OC)[C@H](O)[C@@H](O)[C@H](O)/C=C/C(C)(C)C)C(=O)NC1 [Ex. 2, (2R,3R,4S,5R,6E)-3,4,5-trihydroxy-2-methoxy-8,8-dimethyl-N-[(3S,6R)-hexahydro-2-oxo-6-([[pentyloxy]carbonyl]oxy)-2H-azepin-3-yl]non-6-enonamide]	32* %	46* %	–	–	–	–
CCCCCCCCCCCOCC(=O)O[C@@H]1CC[C@H](NC(=O)[C@H](OC)[C@H](O)[C@@H](O)[C@H](O)/C=C/C(C)(C)C)C(=O)NC1 [Ex. 7, (2R,3R,4S,5R,6E)-3,4,5-trihydroxy-2-methoxy-8,8-dimethyl-N-[(3S,6R)-hexahydro-2-oxo-6-([[undecyloxy]acetyl]oxy)-2H-azepin-3-yl]non-6-enonamide]	–	–	61 ± 95	102	64	30* %
